Values of other authors, collected in patent US7582301B1, “Long-lasting antiviral fusion inhibitor peptide conjugates comprising albumin and human immunodeficiency virus (HIV) peptides” (Conjuchem Biotechnologies, Inc., priority 2000, dated 2009).
Like-named read-outs stand apart in the source and are kept apart here.

Experiments:
measles virus (MeV) = conditions: result in words; MeV-infected and uninfected Vero cells
HPIV-3 = conditions: for inhibition of viral infection of HPIV3, including fusion and syncytia formation: result in words, HPIV3-infected Hep2 cells and uninfected CV-1W cells
[1] = result in words
[2] = test system: simian immunodeficiency virus (SIV); conditions: as crude peptides; result in words
[3] = test system: respiratory syncytial virus (RSV); conditions: RSV-infected and uninfected Hep-2 cells; for inhibition of viral infection of RSV, including fusion and syncytia formation: result in words
HIV-1 = conditions: result in words

IDLGPPISLERLDVGTNLGNAIAKLEAKELLESS [SEQ ID NO:79]
inhibition of viral infection of MeV, including fusion and syncytia formation (measles virus (MeV)): inhibits viral infection

RSDIEKLKEAIRDTNKAVQSVQSSIGNLIVAIKSV [SEQ ID NO:58]
inhibition of viral infection of HPIV3, including fusion and syncytia formation (HPIV-3): inhibits viral infection

SEQ ID NO:8: analog peptide demonstrated to exhibit anti-viral activity; sequence not printed in the text (CGGNNLLRAIEAQQHLLQLTVWGIKQLQARILAVERYLKDQ)
anti-viral activity [1]: exhibit anti-viral activity

ALDPIDISIELNKAKSDLEESKEWIRRSNQKLDSI (VALDPIDISIELNKAKSDLEESKEWIRRSNQKLDS) [SEQ ID NO:38, anti-HPIV-3 peptide, DP178-like]
inhibition of viral infection of HPIV3, including fusion and syncytia formation (HPIV-3): inhibits viral infection

KVDFLEENITALLEEAQIQQEKNMYELQKLNSWDV [SEQ ID NO:70]
anti-SIV activity [2]: potent antiviral activity

VITIELSNIKENKCNGAKVKLIKQELDKYKNAV (VITIELSNIKENKCNGDAKVKLIKQELDKYKNAV) [SEQ ID NO:16, anti-RSV peptide from the F2 region of RSV]
inhibition of viral infection of RSV, including fusion and syncytia formation [3]: inhibits viral infection

IDISIELNKAKSDLEESKEWIRRSNQKLDSIGNWH (PIDISIELNKAKSDLEESKEWIRRSNQKLDSIGNW) [SEQ ID NO:42, anti-HPIV-3 peptide, DP178-like]
inhibition of viral infection of HPIV3, including fusion and syncytia formation (HPIV-3): inhibits viral infection

DPIDISIELNKAKSDLEESKEWIRRSNQKLDSIGN (LDPIDISIELNKAKSDLEESKEWIRRSNQKLDSIG) [SEQ ID NO:40, anti-HPIV-3 peptide, DP178-like]
inhibition of viral infection of HPIV3, including fusion and syncytia formation (HPIV-3): inhibits viral infection

HRIDLGPPISLERLDVGTNLGNAIAKLEAKELLE [SEQ ID NO:77]
inhibition of viral infection of MeV, including fusion and syncytia formation (measles virus (MeV)): inhibits viral infection

PIDISIELNKAKSDLEESKEWIRRSNQKLDSIGNW (DPIDISIELNKAKSDLEESKEWIRRSNQKLDSIGN) [SEQ ID NO:41, anti-HPIV-3 peptide, DP178-like]
inhibition of viral infection of HPIV3, including fusion and syncytia formation (HPIV-3): inhibits viral infection

ERKVDFLEENITALLEEAQIQQEKNMYELQKLNSW [SEQ ID NO:68]
anti-SIV activity [2]: potent antiviral activity

NSVALDPIDISIELNKAKSDLEESKEWIRRSNQKL (NNSVALDPIDISIELNKAKSDLEESKEWIRRSNQK) [SEQ ID NO:35, anti-HPIV-3 peptide, DP178-like]
concentration inhibiting fusion and syncytia formation (HPIV-3; HPIV-3-infected Hep2 cells and uninfected CV-1W cells): less than 1 μg/ml
inhibition of viral infection of HPIV3, including fusion and syncytia formation (HPIV-3): inhibits viral infection

LDPIDISIELNKAKSDLEESKEWIRRSNQKLDSIG (ALDPIDISIELNKAKSDLEESKEWIRRSNQKLDSI) [SEQ ID NO:39, anti-HPIV-3 peptide, DP178-like]
inhibition of viral infection of HPIV3, including fusion and syncytia formation (HPIV-3): inhibits viral infection

FLEENITALLEEAQIQQEKNMYELQKLNSWDVFGN [SEQ ID NO:73]
anti-SIV activity [2]: potent antiviral activity

IALLSTNKAVVSLSNGVSVLTSKVLDLKNYIDK [SEQ ID NO:29, anti-RSV peptide from the F1 region of RSV]
concentration inhibiting fusion and syncytia formation [3]: less than 50 μg/ml
inhibition of viral infection of RSV, including fusion and syncytia formation [3]: inhibits viral infection

DFLEENITALLEEAQIQQEKNMYELQKLNSWDVFG [SEQ ID NO:72]
anti-SIV activity [2]: potent antiviral activity

enfuvirtide
anti-HIV-1 activity (inhibition of HIV-1 infection and fusion) (HIV-1; listed as DP-178): potent inhibitors

NNLLRAIEAQQHLLQLTVWQIKQLQARILAVERYLKDQ [DP107]
anti-HIV-1 activity (inhibition of HIV-1 infection and fusion) (HIV-1; listed as DP-107): potent inhibitors

VDFLEENITALLEEAQIQQEKNMYELQKLNSWDVF [SEQ ID NO:71]
anti-SIV activity [2]: potent antiviral activity

EWERKVDFLEENITALLEEAQIQQEKNMYELQKLN [SEQ ID NO:66]
anti-SIV activity [2]: potent antiviral activity

WERKVDFLEENITALLEEAQIQQEKNMYELQKLNS [SEQ ID NO:67]
anti-SIV activity [2]: potent antiviral activity

VEAKQARSDIEKLKEAIRDTNKAVQSVQSSIGNLI [SEQ ID NO:52]
inhibition of viral infection of HPIV3, including fusion and syncytia formation (HPIV-3): inhibits viral infection

TSVITIELSNIKENKCNGAKVKLIKQELDKYKN (TSVITIELSNIKENKCNGDAKVKLIKQELDKYKN) [SEQ ID NO:15, anti-RSV peptide from the F2 region of RSV]
inhibition of viral infection of RSV, including fusion and syncytia formation [3]: inhibits viral infection

WQEWERKVDFLEENITALLEEAQIQQEKNMYELQK [SEQ ID NO:64]
anti-SIV activity [2]: potent antiviral activity

YTSVITIELSNIKENKCNGAKVKLIKQELDKYK (YTSVITIELSNIKENKCNGDAKVKLIKQELDKYK) [SEQ ID NO:14, anti-RSV peptide from the F2 region of RSV]
inhibition of viral infection of RSV, including fusion and syncytia formation [3]: inhibits viral infection

QEWERKVDFLEENITALLEEAQIQQEKNMYELQKL [SEQ ID NO:65]
anti-SIV activity [2]: potent antiviral activity

PISLERLDVGTNLGNAIAKLEAKELLESSDQILR [SEQ ID NO:84]
inhibition of viral infection of MeV, including fusion and syncytia formation (measles virus (MeV)): inhibits viral infection

RKVDFLEENITALLEEAQIQQEKNMYELQKLNSWD [SEQ ID NO:69]
anti-SIV activity [2]: potent antiviral activity
